Laboratory results from ChEMBL document CHEMBL5233249, “Recent advancements in the development of heterocyclic anti-inflammatory agents” (Eur J Med Chem, 2020).
Converted amounts (≈) assume the structure as drawn.

Experiments:
Mus musculus [1] = assay: Anti-inflammatory activity against Carrageenan-induced paw edema in mouse model assessed as reduction in volume of edema at 100 mg/kg measured after 24 hrs relative to control; type: functional; set-up: scale not given: the % may be the effect or the level left
RAW264.7 [2] = assay: Anti-inflammatory activity in mouse RAW264.7 cells assessed as decreased production of LPS-induced TNFalpha production; type: functional; conditions: read-out: ED50 (the source's name)
RAW264.7 [3] = assay: Anti-inflammatory activity in mouse RAW264.7 cells assessed as decreased production of LPS-induced IL-1beta production; type: functional
[4] = biological target: T1, Prostaglandin G/H synthase 2 (Homo sapiens, UniProt P35354); assay: Inhibition of COX-2 (unknown origin) at 0.1 uM
T1 sequence (P35354 whole entry): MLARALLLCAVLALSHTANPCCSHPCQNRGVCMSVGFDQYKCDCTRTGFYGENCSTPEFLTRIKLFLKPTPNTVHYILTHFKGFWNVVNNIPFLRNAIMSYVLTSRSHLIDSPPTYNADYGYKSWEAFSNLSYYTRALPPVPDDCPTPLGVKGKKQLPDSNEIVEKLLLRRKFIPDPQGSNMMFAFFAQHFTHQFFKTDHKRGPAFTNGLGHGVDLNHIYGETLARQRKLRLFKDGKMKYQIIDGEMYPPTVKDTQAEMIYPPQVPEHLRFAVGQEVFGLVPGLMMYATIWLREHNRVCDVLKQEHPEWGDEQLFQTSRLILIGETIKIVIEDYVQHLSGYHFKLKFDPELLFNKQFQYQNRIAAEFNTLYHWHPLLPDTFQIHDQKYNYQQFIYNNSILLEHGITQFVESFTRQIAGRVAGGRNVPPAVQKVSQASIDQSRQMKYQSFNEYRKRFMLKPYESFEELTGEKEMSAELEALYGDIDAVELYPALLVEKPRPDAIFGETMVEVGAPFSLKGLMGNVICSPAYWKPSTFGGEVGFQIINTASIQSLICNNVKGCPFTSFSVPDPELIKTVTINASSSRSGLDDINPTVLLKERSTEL

Rattus norvegicus [5] = assay: Anti-inflammatory activity in Carrageenan-induced paw edema in Wistar albino rat assessed as inhibition of paw edema measured after 6 hr relative to control; type: functional
RAW264.7 [6] = assay: Anti-inflammatory activity in mouse RAW264.7 cells assessed as decreased production of LPS-induced IL-6 production; type: functional
Rattus norvegicus [7] = assay: Anti-inflammatory activity in Carrageenan-induced paw edema in Wistar albino rat assessed as inhibition of paw edema measured after 3 hr relative to control; type: functional; set-up: Activity: scale not given: the % may be the effect or the level left
Rattus norvegicus [8] = assay: Anti-inflammatory activity in Carrageenan-induced paw edema in Wistar albino rat assessed as inhibition of paw edema measured after 1 hr relative to control; type: functional
RAW264.7 [9] = assay: Anti-inflammatory activity in mouse RAW264.7 cells assessed as inhibition of LPS-induced TNFalpha production measured after 24 hrs by EIA method relative to control; type: functional; set-up: scale not given: the % may be the effect or the level left
[10] = Cytotoxicity against mouse RAW264.7 cells assessed as decreased cell viability measured after 24 hrs by MTT assay; type: toxicity, cell-based
RAW264.7 [11] = assay: Anti-inflammatory activity in mouse RAW264.7 cells assessed as inhibition of LPS-induced reduction in TNFalpha production; type: functional, cell-based
BV-2 = assay: Antineuroinflammatory activity against mouse BV-2 cells assessed as inhibition of LPS-induced NO production by Griess assay relative to control; type: functional; set-up: scale not given: the % may be the effect or the level left
RAW264.7 [12] = assay: Anti-inflammatory activity in mouse RAW264.7 cells assessed as LPS-induced reduction in decreased […] level of IL-1beta measured after 24 hrs; type: functional
[13] = biological target: T2, Prostaglandin G/H synthase 1 (Ovis aries, UniProt P05979); assay: Inhibition of ovine COX-1 by EIA method
T2 sequence (P05979 whole entry): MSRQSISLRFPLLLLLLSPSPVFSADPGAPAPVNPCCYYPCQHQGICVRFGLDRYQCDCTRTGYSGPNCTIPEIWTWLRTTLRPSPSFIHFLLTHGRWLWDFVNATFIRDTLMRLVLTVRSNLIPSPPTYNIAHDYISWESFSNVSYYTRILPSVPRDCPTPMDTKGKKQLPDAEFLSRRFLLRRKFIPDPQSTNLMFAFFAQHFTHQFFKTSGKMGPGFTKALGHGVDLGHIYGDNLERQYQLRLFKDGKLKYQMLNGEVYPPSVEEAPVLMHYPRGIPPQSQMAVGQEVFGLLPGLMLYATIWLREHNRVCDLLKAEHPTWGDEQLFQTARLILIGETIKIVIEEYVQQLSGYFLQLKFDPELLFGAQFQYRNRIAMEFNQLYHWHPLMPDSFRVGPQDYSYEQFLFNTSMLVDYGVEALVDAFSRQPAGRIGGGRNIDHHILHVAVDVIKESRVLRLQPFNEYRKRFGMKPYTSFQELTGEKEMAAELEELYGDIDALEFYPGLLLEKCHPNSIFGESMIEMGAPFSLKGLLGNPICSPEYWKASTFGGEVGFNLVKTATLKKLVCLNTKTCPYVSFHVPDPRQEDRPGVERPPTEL

THP-1 = assay: Anti-inflammatory activity in human THP-1 cells assessed as inhibition in IL-1beta release at 30 uM relative to control; type: functional; set-up: scale not given: the % may be the effect or the level left
[14] = biological target: T3, Polyunsaturated fatty acid 5-lipoxygenase (Homo sapiens, UniProt P09917); assay: Inhibition of 5-LOX (unknown origin) after 5 mins by colorimetric method
T3 sequence (P09917 whole entry): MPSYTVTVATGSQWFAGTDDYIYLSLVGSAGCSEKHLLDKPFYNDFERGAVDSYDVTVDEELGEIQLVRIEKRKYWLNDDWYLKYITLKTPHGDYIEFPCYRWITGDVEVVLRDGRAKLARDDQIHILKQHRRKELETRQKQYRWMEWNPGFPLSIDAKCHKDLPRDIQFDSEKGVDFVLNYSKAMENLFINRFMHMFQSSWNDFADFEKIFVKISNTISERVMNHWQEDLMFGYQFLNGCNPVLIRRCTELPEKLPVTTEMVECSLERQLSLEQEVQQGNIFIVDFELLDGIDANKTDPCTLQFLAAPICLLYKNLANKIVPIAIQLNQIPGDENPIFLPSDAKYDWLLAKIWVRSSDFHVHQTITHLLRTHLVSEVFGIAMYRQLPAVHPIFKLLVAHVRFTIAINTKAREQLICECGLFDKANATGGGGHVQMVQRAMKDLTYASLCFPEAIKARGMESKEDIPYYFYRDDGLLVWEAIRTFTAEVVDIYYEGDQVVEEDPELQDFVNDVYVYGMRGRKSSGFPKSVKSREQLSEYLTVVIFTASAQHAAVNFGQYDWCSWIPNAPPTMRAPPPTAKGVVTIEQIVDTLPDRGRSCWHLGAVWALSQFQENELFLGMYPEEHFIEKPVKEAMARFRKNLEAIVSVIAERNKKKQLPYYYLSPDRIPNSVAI

Rattus norvegicus [15] = assay: Anti-inflammatory activity in Carageenan-induced paw edema Wistar rat model assessed as reduction in paw edema volume relative to control; type: functional; set-up: scale not given: the % may be the effect or the level left
[16] = biological target: T4, Polyunsaturated fatty acid lipoxygenase ALOX15 (Homo sapiens, UniProt P16050); assay: Inhibition of 15-LOX (unknown origin)
T4 sequence (P16050 whole entry): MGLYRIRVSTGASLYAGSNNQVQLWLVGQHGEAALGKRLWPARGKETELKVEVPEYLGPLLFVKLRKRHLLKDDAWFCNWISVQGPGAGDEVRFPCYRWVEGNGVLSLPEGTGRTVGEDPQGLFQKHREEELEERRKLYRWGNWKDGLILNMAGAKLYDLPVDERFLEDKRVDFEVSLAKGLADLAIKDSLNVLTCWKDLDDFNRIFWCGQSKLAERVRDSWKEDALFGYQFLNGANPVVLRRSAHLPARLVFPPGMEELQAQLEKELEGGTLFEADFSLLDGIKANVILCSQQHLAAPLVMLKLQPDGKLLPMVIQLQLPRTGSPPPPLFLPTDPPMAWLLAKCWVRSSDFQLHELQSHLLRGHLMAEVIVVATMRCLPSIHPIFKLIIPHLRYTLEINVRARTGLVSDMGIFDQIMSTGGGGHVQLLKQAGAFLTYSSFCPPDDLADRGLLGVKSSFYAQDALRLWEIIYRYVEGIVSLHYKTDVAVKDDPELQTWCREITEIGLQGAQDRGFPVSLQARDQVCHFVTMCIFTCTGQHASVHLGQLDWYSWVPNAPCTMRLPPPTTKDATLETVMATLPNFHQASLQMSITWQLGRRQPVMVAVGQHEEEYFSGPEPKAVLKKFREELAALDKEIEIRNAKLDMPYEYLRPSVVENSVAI

[17] = biological target: T5, Bifunctional epoxide hydrolase 2 (Homo sapiens, UniProt P34913); assay: Inhibition of human recombinant sEH
T5 sequence (P34913 whole entry): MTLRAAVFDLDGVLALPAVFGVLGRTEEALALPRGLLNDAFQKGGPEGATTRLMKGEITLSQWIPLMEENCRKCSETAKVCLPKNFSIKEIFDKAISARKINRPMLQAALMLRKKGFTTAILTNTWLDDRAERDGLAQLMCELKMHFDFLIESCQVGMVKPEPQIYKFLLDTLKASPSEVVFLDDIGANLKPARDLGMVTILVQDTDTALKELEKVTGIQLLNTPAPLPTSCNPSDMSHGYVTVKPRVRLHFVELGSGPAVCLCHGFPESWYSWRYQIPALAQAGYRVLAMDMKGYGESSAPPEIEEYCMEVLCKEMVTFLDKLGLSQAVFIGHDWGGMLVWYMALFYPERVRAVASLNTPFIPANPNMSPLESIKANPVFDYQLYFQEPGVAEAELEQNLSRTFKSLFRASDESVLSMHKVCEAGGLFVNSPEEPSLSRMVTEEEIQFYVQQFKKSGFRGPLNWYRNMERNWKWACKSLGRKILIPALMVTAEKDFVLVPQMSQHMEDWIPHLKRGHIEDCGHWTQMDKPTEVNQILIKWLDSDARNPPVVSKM

Mus musculus [18] = assay: Anti-inflammatory activity against Carrageenan-induced paw edema in mouse model assessed as inhibition of edema at 100 mg/kg measured after 3 hrs relative to control; type: functional; set-up: scale not given: the % may be the effect or the level left
RAW264.7 [19] = assay: Anti-inflammatory activity in mouse RAW264.7 cells assessed as inhibition of LPS-induced TNFalpha production incubated for 1 hr by EIA relative to control; type: functional
[20] = biological target: T2, Prostaglandin G/H synthase 1; assay: Inhibition of ovine COX-1 at 1 uM
RAW264.7 [21] = assay: Anti-inflammatory activity in mouse RAW264.7 cells assessed as inhibition of LPS-induced IL-6 production incubated for 1 hr by EIA relative to control; type: functional
[22] = biological target: T1, Prostaglandin G/H synthase 2; assay: Inhibition of human recombinant COX-2 at 1 uM
[23] = biological target: T4, Polyunsaturated fatty acid lipoxygenase ALOX15; assay: Inhibition of LOX (unknown origin) at 1 uM
[24] = Anti-inflammatory activity assessed using bovine serum albumin/egg albumin proteins assessed as protein denaturation measured at 95 degC for 20 mins by measuring turbidity by UV-Vis spectrophotometer; type: functional
Erythrocyte = assay: Anti-inflammatory activity in human red blood cells assessed as stabilization of cell membrane; type: functional, cell-based
Rattus norvegicus [25] = assay: Anti-inflammatory activity against formalin-induced foot paw edema in PO dosed rat at 10 mg/kg assessed as inhibition of edema measured after 4 hr relative to control; type: functional
Rattus norvegicus [26] = assay: Anti-inflammatory activity against Carrageenan-induced paw edema in PO dosed Wistar albino rat assessed as inhibition of edema measured after 3 hr relative to control; type: functional; set-up: scale not given: the % may be the effect or the level left
Rattus norvegicus [27] = assay: Anti-inflammatory activity in Carrageenan-induced rat paw edema in Wistar rat assessed as reduction in inhibition of edema measured after 4 hrs relative to control; type: functional; set-up: scale not given: the % may be the effect or the level left
Rattus norvegicus [28] = assay: Anti-inflammatory activity in Carrageenan-induced paw edema in PO dosed rat model at 30 mg/kg measured after 4 hrs relative to control; type: functional
Mus musculus [29] = assay: Anti-inflammatory activity against Carrageenan-induced paw edema in mouse model assessed as reduction of edema at 50 mg/kg measured after 4 hrs relative to control; type: functional; set-up: scale not given: the % may be the effect or the level left

c1ccc(N2CCN(c3cncc(-c4nc5ccccc5[nH]4)n3)CC2)cc1
Activity (Mus musculus [1]): 54.31%

COc1ccc(C2=NNC(S)C2N(CN2C(=O)/C(=C\c3nnc(-c4ccc(-c5ccc(OC)cc5)cc4)s3)c3ccccc32)C(=O)c2ccccc2)cc1 (centres undefined)
EC50 (RAW264.7 [2]): 0.0559 µg/mL (≈ 0.0744 µM) | Activity (RAW264.7 [3]): 35.1 ng/mL | IC50 [4]: 53.1 µM | inhibition (INH) (Rattus norvegicus [5]): 57.14% | Activity (RAW264.7 [6]): 102.1 ng/mL | inhibition (INH) (Rattus norvegicus [7]): 52.63% | inhibition (INH) (Rattus norvegicus [8]): 50%

CCc1ccc(C/C=C2\CCOc3cc(OC)cc(OC)c3C2=O)cc1
Activity (RAW264.7 [9]): 96.4% | CC50 at 24 h [10]: 43.6 µM | IC50 (RAW264.7 [11]): 5.2 µM | Activity (BV-2): 87.9%

COc1c2occc2c(OC)c2c(C)c(/C(=N/c3cc(N4CCNCC4)nc(N4CCNCC4)n3)N3CCNCC3)oc12
Activity (RAW264.7 [12]): 30 pg/mL | IC50 [13]: 4.15 µM | Activity (Rattus norvegicus [7]): 68%

c1cc2[nH]c(-c3cscn3)nc2cn1
Activity (THP-1): 40%

O=C1c2ccccc2C(=O)N1c1nc2cc([N+](=O)[O-])ccc2n1Cc1ccc(-c2ccccc2)cc1
IC50 [14]: 0.32 µM | Activity (Rattus norvegicus [15]): 81.88% | IC50 [16]: 1.02 µM | IC50 [13]: 9.85 µM

O=C(O)c1ccc(CSc2nc3cc(F)c(-c4ncn[nH]4)cc3[nH]2)cc1
IC50 [17]: 0.7 µM | Activity (Mus musculus [18]): 66.3%

COc1ccc(-c2nc3c(C(N)=O)cccc3[nH]2)cc1
inhibition (INH) (RAW264.7 [19]): 91% | IC50 [20]: 0.98 µM | inhibition (INH) (RAW264.7 [21]): 91% | IC50 [22]: 11.6 µM | IC50 [23]: 9.51 µM

O=C([O-])Cc1ccccc1Nc1c(Cl)cccc1Cl.[Na+] [DICLOFENAC SODIUM]
IC50 [24]: 54.65 µg/mL | EC50 (Erythrocyte): 11.7 µg/mL | inhibition in vivo at 10 mg/kg (Rattus norvegicus [25]): 92.9% | Activity (Rattus norvegicus [26]): 60.82% | Activity (Rattus norvegicus [27]): 78.05% | inhibition in vivo at 30 mg/kg (Rattus norvegicus [28]): 93% | Activity (Mus musculus [29]): 76.25%
